Source: PMC8901753, “An ultrasensitive microfluidic approach reveals correlations between the physico-chemical and biological activity of experimental peptide antibiotics” (Scientific Reports, 2022)

Tests used:
E. coli BW25113 cells = experiment: Mother-machine microfluidics-microscopy single-cell assay; assay type: cell-based, Escherichia coli; details: for cell division during peptide treatment / coefficient of variation (CV) in the cell lengths / Lmean 3h (mean cell length normalized to initial cell length) / survival fraction (fraction of wells hosting dividing cells after peptide treatment and overnight LB) / increase in cell length on average before cell death: 10 μM peptide; for cell division during peptide treatment: 3 h, measured per well; for coefficient of variation (CV) in the cell lengths: 3 h time point, susceptible cells, 20 cells from 2 repeats (bienA9: 5 cells, 1 experiment); for Lmean 3h (mean cell length normalized to initial cell length): 3 h time-point, mean ± std. dev.; for Lmean 3h (mean cell length normalized to initial cell length) / increase in cell length on average before cell death: susceptible cells killed before dividing; for survival fraction (fraction of wells hosting dividing cells after peptide treatment and overnight LB): continuous flow 3 h, then LB overnight (17–18 h), stationary phase cells, mean ± std. dev. over 2 biological repeats; for No. of non-dividing survivors at the end of the experiments: 10 M [sic] peptide, cells that did not divide and did not stain with propidium iodide, out of 305–323 initial cells
Source text: The “mother-machine” system (Fig. 1A) enables the physical confinement of individual bacteria in well-controlled microenvironments, where they can be sequentially exposed to nutrients, drugs or viability indicators and the responses studied using time-lapse microscopy[28]–[30]. This technology has been used extensively to study bacterial-drug interactions, using a range of conventional small-molecule antibiotics such as ampicillin, gentamicin, ciprofloxacin (amongst others)[28],[30]–[33], phages[34] as well as novel protein pseudocapsid based antibacterials. Briefly E. coli BW25113 cells were cultured overnight in Lysogeny Broth (LB) at 37 °C to stationary phase and injected into the mother-machine microfluidic device (see “Experimental section” and[28],[29],[31],[32]). We waited for the cells to populate the “wells” of the chip (Fig. 1), following which the trapped cells were challenged with a continuous flow of peptide (10 μM) for 3 h, with images taken hourly. After 3 h of treatment, the cells were provided with fresh LB to study survivors. Post overnight (O/N) LB treatment, dead staining was performed with propidium iodide (PI). Dead cells either lysed or took up PI and appeared bright under fluorescence illumination (Fig. 1B). […] However, the cells that were dividing at the end of the experiment were unambiguously alive. Therefore, we chose to use only these dividing cells in our quantitative analysis discussed below.
Thus, reaching a critical peptide length leads to increased antibacterial activity with the bienA peptides. […] For bienK10 and bienK11, the survival fractions were 56 ± 26% (204 wells, 305 cells) and 31 ± 18% (215 wells, 311 cells) respectively (Fig. 2B), markedly different from the bienA10 and bienA11 results (Fig. 2A). Thus for these bienK peptides, while some individual cells were killed by the peptides, a large number of other clonal relatives survived the exact same conditions, similar to the example shown in Fig. 1. […] Our results reveal important phenotypic variants seemingly oblivious to the effects of these polypeptide antibiotics that are able to grow and divide even during treatment, while their clonal relatives perish. We also observed similar trends when quantifying the cellular division rates in response to the peptides (Fig. 2C,D). […] Again, as with the survival fractions, this peptide length dependence was not observed for the cellular division rates with the bienK series (Fig. 2D).
The Escherichia coli (BW25113) cultures were prepared in 150 mL of Lysogeny Broth (LB; 10 g/L tryptone, 5 g/L yeast extract and 10 g/L NaCl, Melford) with shaking at 200 rpm and incubation at 37 °C overnight (drug dosage during experiments was typically performed around 19–20 h after starting the culture). Prior to seeding in the microfluidic chip, the OD (optical density) of the culture was measured, the cells spun down at 3220g for 5 min and the supernatant filtered twice (0.22 µm, Millipore); this twice filtered supernatant is hereafter referred to as “spent LB”. All OD measurements were carried out at 600 nm. The cell pellet was resuspended in spent LB at an approximate OD of 75; this concentrated stationary phase culture was used when seeding the microfluidic chip with bacteria. Note, the OD of 75 is a theoretical value—we measure the OD of the original stationary phase culture, and calculate the volume of spent LB that the cell pellet (post centrifugation) is to be resuspended in to achieve this OD. In practical terms, one simply needs to concentrate the culture to optimise the efficiency of cells entering the wells of the mother-machine microfluidic device within a 30 min timeframe. We also note that unlike most traditional bulk experiments, we chose to study cells initially seeded in the microfluidic device in stationary phase, in line with previous studies using this platform[30]–[32],[34]. […]

[1] = Single-GUV dye (HPTS) leakage assay, membranolytic activity; details: for vesicle survival rate: continuous flow, after 7 h, PBS pH 7.4, mean ± std. dev., 2 independent repeats; for mode of action from time distribution of single-GUV leakage events: 5 and 10 μM peptide
Source text: Given this variability in the cellular responses to treatment, we hypothesized that cell-to-cell differences at the membrane level could underlie the observed heterogeneity in the bacterial responses to these novel peptides. We therefore used anionic giant unilamellar vesicles (GUVs) as highly controlled model membranes to study the membranolytic activity of the bienA and bienK peptides. The vesicles were produced in a microfluidic chip using octanol-assisted liposome assembly (OLA)[40] and made with a 3:1 mixture of 1,2-dioleoyl-sn-glycero-3-phosphocholine (DOPC) and 1,2-dioleoyl-sn-glycero-3- phospho-rac-(1-glycerol) sodium salt (DOPG) to mimic the anionic charge of bacterial membranes[27] (Fig. 4). We note that E. coli membranes are estimated to be ~ 20% PG, and that lipids of the inner membrane in particular contain a high proportion (over 95%) of phospholipids, similar to our phospholipid-based GUV models. The more complex E. coli outer membrane includes both phospholipids and glycolipids. […] In particular, in a direct comparison, AMP induced membrane permeabilisation was similar across GUVs and E. coli inner (cytoplasmic) membranes, albeit with some interesting dissimilarities in a few specific details. In our assay, the GUVs were formed encapsulating a membrane impermeable dye, HPTS (8-hydroxypyrene-1,3,6-trisulfonic acid) and immobilized using an array of physical traps; the peptide solution was then flowed over them using a continuous flow system.
Figure 4 Schematic of the integrated GUV production, trapping and perfusion platform. GUVs are produced using octanol-assisted liposome assembly at a 6-way junction as described elsewhere. Briefly, lipids dissolved in octanol (the “LO” phase) are brought together at the junction with inner aqueous (IA) and outer aqueous (OA) streams, leading to the production of GUVs hosting octanol droplets. The octanol droplets bud off the GUVs downstream. This mixture of GUVs and octanol droplets is distributed into an array of trapping chambers via a connector chip, which additionally facilitates the separation of the GUVs and octanol droplets (for details, please see Al Nahas et al. Lab Chip 2019[27]). The trapped vesicles contain the membrane-impermeable fluorescent dye HPTS. Post-trapping, the GUVs are subjected to a continuous flow of peptides, and the membranolytic efficacy of the peptides is determined by studying the leakage of the fluorescent dye from the interior of the GUVs via video fluorescence microscopy.
We have published detailed protocols for the design, fabrication and operation of the microfluidic device for immobilizing and testing thousands of individual GUVs, which can be found elsewhere[23],[27]. A detailed protocol for the octanol-assisted liposome assembly (OLA) technique of producing GUVs on chip is also available. Briefly, our platform facilitated three procedural steps integrated in a single device. First, the OLA[40] technique was used to prepare GUVs. Next, the GUVs were trapped downstream in arrays of hydrodynamic posts. Finally, the immobilized GUVs were perfused with the desired dose of a peptide. All lipids described in the text were purchased from Avanti Polar Lipids. The GUVs were prepared in sucrose solution (200 mM) with glycerol (15% v/v) in PBS (pH 7.4). The vesicles were formed encapsulating the fluorescent membrane-impermeable dye 8-hydroxypyrene-1,3,6-trisulfonic acid from Thermo Fisher (HPTS, 50 μM). The microfluidic platform was operated by two positive pressure-driven pump modules (MFCS-4C, Fluigent), and a single neMESYS syringe pump module for fluid manipulation. The trapped GUVs were continuously dosed with buffer solution loaded with 5 μM HPTS (as a tracer) and the peptide of interest at 5 or 10 μM concentrations (the stock peptide solutions were prepared in milliQ water as described previously). […]

Row | Sequence | cell division during peptide treatment (E. coli BW25113 cells) | coefficient of variation (CV) in the cell lengths (E. coli BW25113 cells) | Lmean 3h (mean cell length normalized to initial cell length) (E. coli BW25113 cells) | survival fraction (fraction of wells hosting dividing cells after peptide treatment and overnight LB) (E. coli BW25113 cells) | survival fraction (fraction of wells hosting dividing cells after peptide treatment and overnight LB) (E. coli BW25113 cells; listed as BienA9) | No. of non-dividing survivors at the end of the experiments (E. coli BW25113 cells) | vesicle survival rate ([1]; 5 μM peptide) | vesicle survival rate ([1]; 10 μM peptide) | mode of action from time distribution of single-GUV leakage events [1] | increase in cell length on average before cell death (E. coli BW25113 cells) | vesicle survival rate ([1]; 10 μM peptide, listed as A10) | survival fraction (fraction of wells hosting dividing cells after peptide treatment and overnight LB) (E. coli BW25113 cells; listed as A11) | vesicle survival rate ([1]; 10 μM peptide, listed as A11)
1 | RLLRLALRL [bienA9, ultrashort amphipathic helix peptide with binary encoding by arginine and leucine, alanine at the mutation position] | did not | 17% | 0.9 ± 0.2 | 65 ± 11% | over 50% | 11 | 41 ± 3% | 19.9 ± 0.5% | bimodal all-or-none mode |  |  |  | 
2 | RLLRLALRLL [bienA10, ultrashort amphipathic helix peptide with binary encoding by arginine and leucine, alanine at the mutation position] | immediately and uniformly arrested cell division | 16% | 1.2 ± 0.2 | less than 5% |  | 6 | 12 ± 2% | complete disruption of the entire vesicle population | unimodal “graded” mode of action | 20% | 0% |  | 
3 | RLLRLALRLLR [bienA11, ultrashort amphipathic helix peptide with binary encoding by arginine and leucine, alanine at the mutation position] | immediately and uniformly arrested cell division | 16% | 1.2 ± 0.2 | less than 5% |  | 24 | 1 ± 1% | complete disruption of the entire vesicle population | unimodal “graded” mode of action | 20% |  | 0% | 0%
4 | RLLRLKLRL [bienK9, ultrashort amphipathic helix peptide with binary encoding by arginine and leucine, lysine at the mutation position] |  | 44% | 2.0 ± 0.9 |  |  | 13 | 41 ± 20% | 47 ± 7% |  |  |  |  | 
5 | RLLRLKLRLL [bienK10, ultrashort amphipathic helix peptide with binary encoding by arginine and leucine, lysine at the mutation position] |  | 47% | 2.0 ± 0.9 |  |  | 7 | 40 ± 7% | 48 ± 10% |  |  |  |  | 
6 | RLLRLKLRLLR [bienK11, ultrashort amphipathic helix peptide with binary encoding by arginine and leucine, lysine at the mutation position] |  | 48% | 1.8 ± 0.9 | 31 ± 18% |  | 1 | 70 ± 13% | 78 ± 4% |  |  |  |  | 
